System: A2780cp cells
Assay: Colony formation assay
Format: cell-based, human
Settings: significantly rescued by ectopic expression of p65 (FIGS. 1G & H)
Procedure: F. Colony formation assay: A2780cp cells were infected with p65 expressing or GFP (Cntrl) virus followed by plating 1000 cells per condition. The cells were then treated with 2 μM MST312 or DMSO control for 2 weeks followed by staining with crystal violet after 12 days. Number of colonies was counted from duplicate plates.

sh-hTERT: shRNA directed against hTERT, SEQ ID NO: 48 (CATTTCATCAGCAAGTTTGGA)
colony forming ability of cells: reduction in colony forming ability
